This note sets out measurements from the supplement of paper PMC10307832.

What all share (assay): relative viability (nuclei count vs DMSO), 5 days (fraction); higher = more cells survive
Compound in test [1]: CC(C)CCN1c2nc(Nc3cc(F)c(O)c(F)c3)ncc2N(C)C(=O)C1C [BI-D1870] + CC(C)C[C@H](NC(=O)[C@H](Cc1ccccc1)NC(=O)c1cnccn1)B(O)O [Bortezomib] (partner 0.002 µM)
The method, boiled down: (§1)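 A single step with final 0.05% Triton X-100, 1% formaldehyde and 1 ug/ml Hoechst fixed the cells and stained nuclei 5 days after treatment. Lung cancer cell lines in 1536-well plates had been treated by pin tool the day after seeding with one drug alone or a fixed anchor-drug dose plus five library-drug doses (not always all listed) in √10 steps, and nuclei were counted on 4× images. Relative viability is the ratio of nuclei in treated wells to nuclei in vehicle wells, taken as the median of duplicate plates.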

Compound in test [2]: CC(C)CCN1c2nc(Nc3cc(F)c(O)c(F)c3)ncc2N(C)C(=O)C1C [BI-D1870] + CC1(C)CCC(c2ccc(Cl)cc2)=C(CN2CCN(c3ccc(C(=O)NS(=O)(=O)c4ccc(N[C@H](CCN5CCOCC5)CSc5ccccc5)c(S(=O)(=O)C(F)(F)F)c4)cc3)CC2)C1 [Navitoclax] (partner 0.5 µM)
The method, boiled down:
as §1

Compound in test [3]: CC(C)CCN1c2nc(Nc3cc(F)c(O)c(F)c3)ncc2N(C)C(=O)C1C [BI-D1870] + Nc1nc2[nH]cc(CCc3ccc(C(=O)N[C@@H](CCC(=O)O)C(=O)O)cc3)c2c(=O)[nH]1 [Pemetrexed] (partner 0.2 µM)
The method, boiled down: as §1

Compound in test [4]: O=c1ncccn1[C@@H]1O[C@H](CO)[C@@H](O)[C@H]1O [Zebularine] + N=C(N)NC(=N)NCCc1ccccc1 [Phenformin] (partner 250 µM)
The method, boiled down:
as §1

On to 201T, for which the relative viability came out at 1.14 in test [1] (first compound 0.04 µM); 1.06 in test [1] (first compound 0.1265 µM); 1.07 in test [1] (first compound 0.4 µM); 1.1 in test [1] (first compound 1.265 µM); 1.06 in test [1] (first compound 4 µM); 1.18 in test [2] (first compound 0.04 µM). For the same cell line, the relative viability is 1.18 in test [2] (first compound 0.1265 µM); 1.19 in test [2] (first compound 0.4 µM); 1.23 in test [2] (first compound 1.265 µM); 1.19 in test [2] (first compound 4 µM); 0.319 in test [3] (first compound 0.04 µM); 0.308 in test [3] (first compound 0.1265 µM). In addition, the relative viability was 0.307 in test [3] (first compound 0.4 µM); 0.344 in test [3] (first compound 1.265 µM); 0.316 in test [3] (first compound 4 µM); 0.527 in test [4] (first compound 1 µM); 0.485 in test [4] (first compound 3.162 µM); 0.327 in test [4] (first compound 10 µM). In addition, the figures for the relative viability in test [4] (first compound 31.62 µM) and in test [4] (first compound 100 µM) were 0.492 and 0.368, respectively.
A549: the relative viability was determined as 1.31 in test [2] (first compound 0.04 µM); 1.15 in test [2] (first compound 0.1265 µM); 1.28 in test [2] (first compound 0.4 µM); 1.15 in test [2] (first compound 1.265 µM); 0.123 in test [2] (first compound 4 µM); 0.209 in test [4] (first compound 1 µM). For the same cell line, the relative viability in test [4] (first compound 3.162 µM) worked out at 0.171; in test [4] (first compound 10 µM), 0.169; in test [4] (first compound 31.62 µM), 0.131; in test [4] (first compound 100 µM) it was 0.122.
Regarding A-427, the relative viability in test [1] (first compound 0.04 µM) stood at 1.08; in test [1] (first compound 0.1265 µM) it was 1.01; in test [1] (first compound 0.4 µM), 0.936; in test [1] (first compound 1.265 µM), 1.08; in test [1] (first compound 4 µM), 0.968; in test [2] (first compound 0.04 µM), 1.1. For the same cell line, the relative viability was 0.958 in test [2] (first compound 0.1265 µM); 0.922 in test [2] (first compound 0.4 µM); 0.997 in test [2] (first compound 1.265 µM); 0.999 in test [2] (first compound 4 µM); 1.02 in test [3] (first compound 0.04 µM); 0.982 in test [3] (first compound 0.1265 µM). Besides, the relative viability in test [3] (first compound 0.4 µM) came to 0.994; in test [3] (first compound 1.265 µM) it was 0.963; in test [3] (first compound 4 µM) it was 0.784; in test [4] (first compound 1 µM) it was 0.361; in test [4] (first compound 3.162 µM) it was 0.302; in test [4] (first compound 10 µM) it was 0.262. The relative viability in test [4] (first compound 31.62 µM) was 0.279; in test [4] (first compound 100 µM), 0.213.
For ABC-1, the relative viability stood at 0.306 in test [1] (first compound 0.04 µM); 0.353 in test [1] (first compound 0.1265 µM); 0.232 in test [1] (first compound 0.4 µM); 0.298 in test [1] (first compound 1.265 µM); 0.244 in test [1] (first compound 4 µM); 0.237 in test [4] (first compound 1 µM). Also, the relative viability worked out at 0.229 in test [4] (first compound 3.162 µM), 0.255 in test [4] (first compound 10 µM), 0.179 in test [4] (first compound 31.62 µM) and 0.222 in test [4] (first compound 100 µM).
As for BEN, the relative viability in test [1] (first compound 0.04 µM) was determined as 0.897; in test [1] (first compound 0.1265 µM), 0.793; in test [1] (first compound 0.4 µM) it was 0.971; in test [1] (first compound 1.265 µM), 0.979; in test [1] (first compound 4 µM) it was 0.663; in test [2] (first compound 0.04 µM) it was 0.0563. Besides, the relative viability in test [2] (first compound 0.1265 µM) is 0.0674; in test [2] (first compound 0.4 µM), 0.0746; in test [2] (first compound 1.265 µM), 0.383; in test [2] (first compound 4 µM) it was 0.0789; in test [3] (first compound 0.04 µM), 0.784; in test [3] (first compound 0.1265 µM) it was 0.628. Moreover, the relative viability in test [3] (first compound 0.4 µM) is 0.743; in test [3] (first compound 1.265 µM) it was 0.96; in test [3] (first compound 4 µM), 0.697; in test [4] (first compound 1 µM), 0.285; in test [4] (first compound 3.162 µM), 0.242; in test [4] (first compound 10 µM), 0.276. The figures for the relative viability in test [4] (first compound 31.62 µM) and in test [4] (first compound 100 µM) were 0.251 and 0.202, respectively.
Turning to CAL-12T, the relative viability in test [1] (first compound 0.04 µM) was 1.15; in test [1] (first compound 0.1265 µM) it was 0.907; in test [1] (first compound 0.4 µM), 0.932; in test [1] (first compound 1.265 µM), 0.895; in test [1] (first compound 4 µM), 0.635; in test [2] (first compound 0.04 µM) it was 1.35. The relative viability in test [2] (first compound 0.1265 µM) was 1.03; in test [2] (first compound 0.4 µM), 1.19; in test [2] (first compound 1.265 µM), 1.07; in test [2] (first compound 4 µM), 1.08; in test [3] (first compound 0.04 µM), 1.29; in test [3] (first compound 0.1265 µM), 1.16. Also, the relative viability in test [3] (first compound 0.4 µM) amounted to 1.33; in test [3] (first compound 1.265 µM) it was 1.15; in test [3] (first compound 4 µM) it was 0.736; in test [4] (first compound 1 µM), 0.569; in test [4] (first compound 3.162 µM) it was 0.464; in test [4] (first compound 10 µM), 0.535. In addition, the relative viability in test [4] (first compound 31.62 µM) amounted to 0.583; in test [4] (first compound 100 µM), 0.391.
On to COR-L23, for which the relative viability in test [1] (first compound 0.04 µM) stood at 1.28; in test [1] (first compound 0.1265 µM), 0.844; in test [1] (first compound 0.4 µM), 0.979; in test [1] (first compound 1.265 µM) it was 0.926; in test [1] (first compound 4 µM), 1.03; in test [2] (first compound 0.04 µM) it was 1.15. For the same cell line, the relative viability in test [2] (first compound 0.1265 µM) was 0.951; in test [2] (first compound 0.4 µM) it was 1.06; in test [2] (first compound 1.265 µM) it was 1.1; in test [2] (first compound 4 µM) it was 0.479; in test [3] (first compound 0.04 µM), 0.181; in test [3] (first compound 0.1265 µM), 0.209. For the same cell line, the relative viability in test [3] (first compound 0.4 µM) came to 0.195; in test [3] (first compound 1.265 µM), 0.205; in test [3] (first compound 4 µM), 0.201; in test [4] (first compound 1 µM), 0.468; in test [4] (first compound 3.162 µM) it was 0.438; in test [4] (first compound 10 µM) it was 0.312. Further, the relative viability amounted to 0.284 in test [4] (first compound 31.62 µM) and 0.165 in test [4] (first compound 100 µM).
Regarding COR-L 105, the relative viability came to 0.835 in test [1] (first compound 0.04 µM); 0.831 in test [1] (first compound 0.1265 µM); 0.88 in test [1] (first compound 0.4 µM); 0.774 in test [1] (first compound 1.265 µM); 0.713 in test [1] (first compound 4 µM); 0.863 in test [2] (first compound 0.04 µM). The relative viability in test [2] (first compound 0.1265 µM) worked out at 0.673; in test [2] (first compound 0.4 µM) it was 0.761; in test [2] (first compound 1.265 µM) it was 0.997; in test [2] (first compound 4 µM), 0.75; in test [3] (first compound 0.04 µM) it was 1.31; in test [3] (first compound 0.1265 µM) it was 0.883. In addition, the relative viability in test [3] (first compound 0.4 µM) amounted to 1.14; in test [3] (first compound 1.265 µM), 1.32; in test [3] (first compound 4 µM), 1.05; in test [4] (first compound 1 µM) it was 0.581; in test [4] (first compound 3.162 µM) it was 0.488; in test [4] (first compound 10 µM) it was 0.314. Further, the relative viability in test [4] (first compound 31.62 µM) came to 0.575; in test [4] (first compound 100 µM), 0.53.
With Calu-6, the relative viability in test [1] (first compound 0.04 µM) was found to be 0.972; in test [1] (first compound 0.1265 µM), 0.914; in test [1] (first compound 0.4 µM), 1.05; in test [1] (first compound 1.265 µM) it was 0.845; in test [1] (first compound 4 µM), 0.361; in test [2] (first compound 0.04 µM), 0.989. The relative viability in test [2] (first compound 0.1265 µM) came to 0.829; in test [2] (first compound 0.4 µM), 0.823; in test [2] (first compound 1.265 µM), 0.671; in test [2] (first compound 4 µM), 0.352.
